Series [1] deals with Streptococcus mutans. The series is described as follows: Antibiofilm activity against Streptococcus mutans assessed as inhibition of biofilm formation on hydroxyapatite surface at 5 ug/ml relative to control. It is filed as functional.
For series [2], the system named is Streptococcus mutans. The series is described as follows: Inhibition of Streptococcus mutans F-ATPase activity relative to control. The conditions noted are these: concentration not given here.
For series [3], the system named is Streptococcus mutans. Put plainly: Antibacterial activity against Streptococcus mutans. It counts as organism-based.
Series [4] concerns Streptococcus mutans. Put plainly: Antibiofilm activity against Streptococcus mutans assessed as inhibition of biofilm formation. It is filed as functional, organism-based. The conditions noted are these: for IC50: Streptococcus mutans.
Series [5] concerns Streptococcus mutans. Put plainly: Antibiofilm activity against 24 hrs-old biofilm of Streptococcus mutans assessed as reduction in cell viability at 5 ug/ml relative to control. It is filed as functional.
Series [6] has as its system Streptococcus mutans. The series is described as follows: Antibiofilm activity against 24 hrs-old biofilm of Streptococcus mutans assessed as reduction in cell viability at 10 ug/ml relative to control. It is filed as functional.
Series [7] is described as follows: Binding affinity to Streptococcus mutans GtfC.
Series [8] has as its system Streptococcus mutans. Put plainly: Antibiofilm activity against Streptococcus mutans assessed as decrease in biofilm viability at 0.053 to 53 uM by LIVE/DEAD staining based assay relative to control. It counts as functional.
The subject of series [9] is Streptococcus mutans. Put plainly: Antibiofilm activity against Streptococcus mutans assessed as reduction in cell viability at 50 ug/ml relative to control. It is filed as functional.
For a further series, the target named is T1, Sortase A (Streptococcus mutans, UniProt Q8CM62).
T1 sequence (Q8CM62 whole entry): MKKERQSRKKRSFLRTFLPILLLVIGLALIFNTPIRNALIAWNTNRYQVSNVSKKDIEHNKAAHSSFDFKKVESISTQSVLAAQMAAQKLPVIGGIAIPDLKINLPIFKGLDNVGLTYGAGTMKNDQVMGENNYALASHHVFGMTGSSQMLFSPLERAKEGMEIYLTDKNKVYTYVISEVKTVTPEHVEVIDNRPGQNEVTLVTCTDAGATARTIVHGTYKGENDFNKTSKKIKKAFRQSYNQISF
The series is described as follows: Binding affinity to Streptococcus mutans Sortase A.

A short description of series [10]: Binding affinity to Streptococcus mutans GtfB.
The subject of series [11] is Streptococcus mutans. The series is described as follows: Antibiofilm activity against Streptococcus mutans assessed as inhibition of biofilm formation at 12.5 ug/ml relative to control. It is filed as functional.
Series [12] relates to Streptococcus mutans. Put plainly: Antibiofilm activity against Streptococcus mutans assessed as inhibition of biofilm formation on using surface coated compound at 0.06 uM relative to control. It counts as functional.
Series [13] is described as follows: Inhibition of Streptococcus mutans VicK autophosphorylation activity.
Series [14] relates to Streptococcus mutans. The series is described as follows: Antibiofilm activity against Streptococcus mutans assessed as reduction in biomass at 0.63 ug/ml relative to control. It counts as functional.
Series [15] is described as follows: Inhibition of Streptococcus mutans LiaS autophosphorylation activity.
Series [16] in a line: Inhibition of Streptococcus mutans CiaH autophosphorylation activity.
The subject of series [17] is Streptococcus mutans. Put plainly: Antibiofilm activity against Streptococcus mutans assessed as inhibition of biofilm formation by measuring drug level causing induction of micro-colony phenotype. It counts as functional.
The subject of series [18] is Streptococcus mutans. The series is described as follows: Antibiofilm activity against Streptococcus mutans assessed as inhibition of biofilm formation by measuring reduction in cell adherence at sub-MIC level relative to control. It counts as functional.
The test system of series [19] is Streptococcus mutans. Put plainly: Antibiofilm activity against Streptococcus mutans assessed as inhibition of biofilm formation at 200 ug/ml after 4 hrs by Congo red staining based assay relative to control. It counts as functional.
Series [20] relates to Streptococcus mutans. Put plainly: Antibiofilm activity against Streptococcus mutans assessed as inhibition of biofilm formation at 200 ug/ml after 4 hrs by crystal violet staining based assay relative to control. It counts as functional.
Series [21] relates to Streptococcus mutans. The series is described as follows: Antibiofilm activity against Streptococcus mutans assessed as inhibition of biofilm formation at 250 uM on saliva-coated glass slides relative to control. It counts as functional.
Series [22] concerns Streptococcus mutans. Put plainly: Antibacterial activity against Streptococcus mutans assessed as inhibition of planktonic growth relative to control. It counts as organism-based.
Series [23] has as its system Streptococcus mutans. Put plainly: Antibiofilm activity against 24 hrs-old biofilm of Streptococcus mutans assessed as reduction in cell viability relative to control. It is filed as functional.

Structures are written as SMILES. In brackets after ≈: the same amount, converted by molar mass.

Broadly, the inhibition is the share of the control response that was lost under treatment. A word on the IC50: it is the concentration needed to halve the response being measured. Broadly, the Kd is a measure of binding affinity in units of concentration. Low readings indicate higher affinity, high ones lower affinity.

As for `Cc1cc(O)c2c(c1)C(=O)c1cc(O)cc(O)c1C2=O` [EMODIN], the inhibition at 5 µg/mL in the series on Streptococcus mutans [1] was found to be 90%.

With `O=C(O[C@@H]1Cc2c(O)cc(O)cc2O[C@@H]1c1cc(O)c(O)c(O)c1)c1cc(O)c(O)c(O)c1` [EPIGALOCATECHIN GALLATE], in the series with Streptococcus mutans [2], the inhibition stood at 50%. The compound further displayed an MIC against Streptococcus mutans [3] of 31.25 µg/mL. For the same compound, the MBIC90 in the series with Streptococcus mutans [4] is 15.6 µg/mL.

Consider `COc1ccc(CCNc2nc3ccccc3nc2NCCc2ccc(OC)cc2)cc1`, for which, in the series with Streptococcus mutans [5], the inhibition at 5 µg/mL is 46%. Moreover, the inhibition at 10 µg/mL with Streptococcus mutans [6] was 79%.

As to `Oc1cc(O)cc(/C=C/c2ccc(O)c(O)c2)c1` [PICEATANNOL], the IC50 with Streptococcus mutans [4] is 52 µM. Moreover, binding in series [7] was put at a Kd of 14.6 µM.

Regarding `CO[C@H](CC(=O)O)[C@@H](C)C(=O)[C@H](C)/C=C(\C)[C@H]1OC(=O)[C@H](O)[C@H](O)/C=C/[C@H](C)CCC[C@@H]1C`, in the series with Streptococcus mutans [8], the “inhibition (INH)” value is recorded as 55 - 65%.

`Cc1cccc(N/C=C2/C=C(c3ccc(Cl)cc3)OC2=O)n1`: the inhibition at 50 µg/mL with Streptococcus mutans [9] is 75%.

For the compound `O=c1c(O)c(-c2ccc(O)cc2O)oc2cc(O)cc(O)c12` [MORIN], the IC50 at Sortase A came to 27.2 µM.

In the case of `Oc1ccc(/C=C/c2cc(O)cc(O)c2)cc1` [RESVERATROL], the results for the Kd in [10] and in series [7] were 144 µM and 510 µM, respectively.

`NC(=O)c1ccccc1NC(=O)c1cc2cc([N+](=O)[O-])ccc2s1`: the inhibition at 12.5 µg/mL in the series on Streptococcus mutans [11] is 85%. The results for the Kd in series [10] and in series [7] were 3.7 µM and 0.0469 µM, respectively.

As to `O=C1C=C/C(=C\Br)O1`, in the series with Streptococcus mutans [12], the inhibition at 0.06 µM amounted to 63%.

Regarding `CCC(C)C1(O)C(C)C(=O)c2c(c(OC)c3ccc(-c4ccc5c(Cl)c6c(c(O)c5c4O)C(=O)C(C)C(O)(C(C)C)C6/C(=C\C(=O)O)OC)c(O)c3c2O)C1/C(C)=C\C(=O)O` (stereo not given), the figures for the IC50 in series [13], in [15] and in series [16] were 2.53 µg/mL (≈ 2.94 µM), 4.96 µg/mL (≈ 5.76 µM) and 4.29 µg/mL (≈ 4.98 µM), respectively. Also, in the series on Streptococcus mutans [14], the inhibition at 0.63 µg/mL is 60%.

`C=CCc1ccc(O)c(OC)c1` [EUGENOL]: the INH in the series with Streptococcus mutans [17] worked out at 0.3125 µg/mL.

Regarding `CCC[C@@H]1CCC[C@]2(CCC)C(=O)CCC[C@@H]12`, in the series on Streptococcus mutans [18], the “inhibition (INH)” value came out at 50%. In addition, the MIC against Streptococcus mutans [3] came out at 156.25 µg/mL. Also, in the series on Streptococcus mutans [4], the MBIC50 turned out to be 39 µg/mL.

For the compound `C[C@H]1/C=C/[C@H]2OC(C)(C)O[C@H]2C(=O)O[C@H](c2cccc(CCCCC(=O)O)c2)[C@@H](C)CCC1`, the MBIC50 with Streptococcus mutans [4] stood at 63 µM.

The compound `COc1cc(/C=C/C(=O)CC(=O)/C=C/c2ccc(O)c(OC)c2)ccc1O` [CURCUMIN] registered an MIC with Streptococcus mutans [3] of 125 µM. Further, on Sortase A, the IC50 is 10.2 µM.

As to `CCCCCCCCCCCCCCCCCC(=O)Oc1cc(C(=O)O[C@@H]2Cc3c(O)cc(O)cc3O[C@@H]2c2cc(OC(=O)CCCCCCCCCCCCCCCCC)c(O)c(OC(=O)CCCCCCCCCCCCCCCCC)c2)cc(OC(=O)CCCCCCCCCCCCCCCCC)c1O`, the inhibition at 200 µg/mL with Streptococcus mutans [19] and in the series with Streptococcus mutans [20] was 100% each time.

Consider `O=C(/C=C/c1ccccc1)c1ccccc1` [CHALCONE], for which the inhibition at 250 µM in the series with Streptococcus mutans [21] amounted to 90%. In addition, the IC50 on Sortase A amounted to 5 µM.

As to `CCCCCCCCCCCCCCCc1c[nH]c(N)n1.Cl`, in the series on Streptococcus mutans [22], the “growth inhibition (GI)” value is recorded as less than 13%. In addition, the IC50 with Streptococcus mutans [4] amounted to 0.94 µM.

In the case of `O=C1C=C(Br)/C(=C/Br)O1`, the “inhibition (INH)” value in the series with Streptococcus mutans [23] came to 60%.

For the origin of these results see ChEMBL document CHEMBL4354780, “Targeting S. mutans biofilms: a perspective on preventing dental caries” (Medchemcomm, 2019).
